Source: a melting point compilation (Tetko et al.; mined from patent text by program, amines drawn as free bases though some values may be those of a salt)

SMILES | melting point [°C]
COc1ccc2c(c1O)N=CC1CCCN1C2=O (configuration not stated) | 150 to 153
COc1cccc(CNC(=O)c2nc3scc(CC(=O)O)c3c(=O)[nH]2)c1 | 228 to 229
O=c1[nH]ncc2[nH]c(-c3ccc(OC(F)F)c(OC4CC4)c3)c(COC3CCC3)c12 | 95 to 100
Cc1ccc(S(=O)(=O)NCC(NS(=O)(=O)c2ccc(C)cc2)c2ccccc2)cc1 (configuration not stated) | 148 to 149
CC(=O)OC1CCC2C3CCC4C(=O)CCCC4(C)C3CCC12C (configuration not stated) | 160 to 163
O=C(O)C1=Cc2cc(F)cc(Br)c2OC1C(F)(F)F (configuration not stated) | > 300
CCCCc1nc(SC)cn1Cc1ccc(-c2ccccc2S(=O)(=O)N=CN(C)C)cc1 | 148
CCOC(=O)C=Cc1cc(OC)c(OC)c([N+](=O)[O-])c1 | 87 to 88
N#Cc1cccc(-c2ccc(-c3cccc(C#N)c3)o2)c1 | 163 to 164
CN1C(=O)N2[C@H](c3cccc(O)c3)c3[nH]c4ccc(Br)cc4c3C[C@@]2(C)C1=O (racemic) | 248 to 251
COC(=O)c1ccc(C(O)c2cccnc2)cc1 (configuration not stated) | 151
C=Cc1cc(CNC(=O)C#Cc2ccc(C(C)(C)C)cc2)cc(F)c1NS(C)(=O)=O | 155 to 157
CC(C)(C)OC(=O)COc1ccc(C(=O)O)cc1OCC(=O)OC(C)(C)C | 118 to 120
N#Cc1ccc2c(c1)C=C(C(=O)O)C(C(F)(F)F)O2 (configuration not stated) | 102 to 106
CC1(C)CCC(C)(C)c2cc(C(C(N)=O)C(=O)OCc3ccccc3)ccc21 (configuration not stated) | 112 to 113
COC(=O)CCNC(=O)C1CCCN1C(=O)OC(C)(C)C (configuration not stated) | 70
COc1ccc(-n2nc(C)c3c(C(=O)Nc4c(C)ccnc4C)cc(C)nc32)cc1 | 224 to 227
CC(=O)C(C)N1C(=O)N(c2ccc(N3CCN(c4ccc(O)cc4)CC3)cc2)C(=O)C1(C)C (configuration not stated) | 226
O=C(NN1CCCCCC1)c1nc(-c2ccc(Cl)cc2Cl)c(-c2ccc(Cl)cc2)s1 | 185 to 186
ClCc1nc2cc(Cl)cc(Cl)c2o1 | 52 to 53

SMILES | melting point [°C]
O=Cc1cc(Cc2ccccc2)ccc1O | 78 to 79
CC(=O)Oc1ccc2c(c1)C(=O)N(C(C)=O)C(C(Cl)(Cl)Cl)O2 (configuration not stated) | 138 to 140
O=CN1CCC(c2nn(-c3ccc(F)cc3)c3ccccc23)CC1 | 128 to 130
CCOc1nc(-c2ccc(Cl)cc2)c(CCC(=O)O)o1 | 148 to 149
O[C@@H]1CNCC[C@H]1Oc1ccc2c(c1)CCCC2 (relative stereo) | 125 to 127
CCOC(=O)c1c(N)c(Br)cc2c1OCO2 | 81 to 83
CN(C)C=NC(=O)c1cnn2c(-c3ccccc3)ccnc12 | 198 to 202
CN1C(=O)C(c2ccc(OC(F)F)cc2)(c2cccc(CCCC#N)c2)N=C1N (configuration not stated) | 75
O=C(c1nc2ccccc2n1Cc1ccc(F)cc1)C1CCN(CCC2(Cc3ccc(C(F)(F)F)cc3)CCN(Cc3ccccc3)C2=O)CC1 (configuration not stated) | 104 to 106
Nc1ccc(Cl)cc1-c1ncn[nH]1 | 170 to 175
C=CCCOC[C@H]1CC[C@H](c2ccc(C#N)cc2)CC1 | 12.7
COC(=O)CC1CC(=O)Nc2ccccc21 (configuration not stated) | 115 to 116
NC(=O)c1cc(F)c(NC2CCNCC2)cc1F | 188 to 190
CC(=O)ON=C(c1ccc(OC(C)=O)cc1O)c1ccccc1F | 132 to 134
COc1cc2c(cc1F)C1(CO2)C(=O)N(Cc2ccccc2)c2ccccc21 (configuration not stated) | 160 to 162
CS(=O)(=O)c1ccccc1C(=O)Cl | 135 to 137
CN1C[C@H](CCN2CCN(C(c3ccccc3)c3ccccc3)CC2)C[C@@H]2c3cccc4[nH]cc(c34)C[C@H]21 | 206 to 212
COc1cccc2c1C13CCN(C(=O)C4CCC4)C(C2)C1CCC(=O)C3 (configuration not stated) | 125 to 126
O=C1CCCc2c1ccc(OCc1ccccc1)c2Cl | 99 to 100
CN1C(=O)C(c2cccc(C#Cc3ccccc3)c2)(c2cc(C=O)n(CCCF)c2)N=C1N (configuration not stated) | 85 to 90

SMILES | melting point [°C]
CCOc1cc2c(cc1OC)CCN(c1nc(N)c3cc(OC)c(OC)cc3n1)C2 | 258 to 260
Brc1ccc2c(c1)-c1nc(-c3ccccc3)sc1CC2 | 85
CCCOc1ccc(OC)c(-c2csc(N)n2)c1 | 76
CCCCCCCCCCCCCCCCCC(=O)Nc1cccc([N+](=O)[O-])c1 | 75 to 76
CN(C(=O)C(C)(C)c1cc(C(F)(F)F)cc(C(F)(F)F)c1)c1ccc(Cl)cc1C(=O)c1ccccc1 | 89 to 91
COc1ccc2c(c1)C(=O)C(C(=O)O)C(c1ccccc1)=N2 (configuration not stated) | > 300
NS(=O)(=O)c1cccc(C(O)C(F)(F)F)c1 (configuration not stated) | 130 to 132
COc1cc2ncnc(N3CCN(C(=S)NCc4ccc(C(F)(F)F)cc4)CC3)c2cc1OC | 216 to 217
CC(=O)N1N=C(c2ccc(N)cc2)c2cc3c(cc2C=C1C)OCO3 | 175 to 180
Clc1ccc2ncsc2c1Cl | 180 to 198
CC(Cn1ncnn1)n1nnc2cc3c(=O)n(CCF)nnc3cc2c1=O (configuration not stated) | 196 to 198
CCNC(=O)CC1CCN(Cc2cnc3cc(NC(=O)c4ccc(-c5ccc(F)cc5)cc4)c(C)cc3c2)CC1 | 251
Cc1cc(C)nc(NC2CCC(CCN3CCN(c4ccccc4)CC3)CC2)n1 (configuration not stated) | 127 to 129
CCCOc1ccc(C(=O)Nc2ccc3cc(CN4CCCC4)cnc3c2C)c(F)c1 | 146
CCSc1ccc(-c2coc3ccc(-c4nnc(C)o4)cc23)c(Cl)c1 | 108 to 109
O=c1cc(-c2ccccc2)c2ccc(COc3cc(F)cc(-c4ccccc4)c3)cc2o1 | 129 to 131
Cc1nc(N)c2nc(CNC(=O)C3CC3)n(CC(C)C)c2c1C | 182 to 184
COCCc1nc2c(N)nc3ccccc3c2n1CCCCNC(=O)c1ccc(-n2cccc2)nc1 | 77 to 80

Further lines, results first:

melting point [°C] | SMILES
231 to 232 | O=S(=O)(O)CCCCN1CCN(C(c2ccc(F)cc2)c2ccccn2)CC1 (configuration not stated)
132 | CCOC(=O)c1ccc(C(C(N)=O)C(C)c2cc(C)ccc2N2CCCCC2)cc1 (configuration not stated)
78 to 80 | COC(=O)[C@@H]1CN(C#N)C[C@H]1c1ccc(OC)c(OC2CCCC2)c1 (relative stereo)
167 to 174 | O=C(O)C1=Cc2cc(S(=O)(=O)NCc3ccccc3)cc(Cl)c2OC1C(F)(F)F (configuration not stated)
253 to 255 | Cc1cc(-c2ccccc2)nc2nc(N)ccc12
159 to 161 | CC(CC(C)(C)O)Nc1ncc2cc(Oc3ccc(F)cc3F)c(=O)n(C)c2n1 (configuration not stated)
146 to 148 | CNc1nc(-c2cccc(NC(=O)c3ccccc3)c2)c2cc(OC)c(OC)cc2n1
119 to 122 | O=C1c2c(ccc3c2OCCO3)S(=O)(=O)N1CCCCO
207 to 208 | CC1(C)CC(Cc2ccc(CC3CC(C)(C)N(Cc4ccccc4)C(C)(C)C3)cc2)CC(C)(C)N1Cc1ccccc1
230 to 232 | O=C(Nc1cnc2cnc(-c3ccc(O)cc3)nc2c1)c1ccncc1
266 | Cc1ccc2c([nH]c3c(C(=O)O)cccc32)c1Cl
241 to 244 | O=C(O)CN1C(=O)C(=Cc2cccc3ccccc23)SC1=S
93 to 95 | OCCOCC=C(c1ccc(Cl)cc1)c1ccc(Cl)cc1
215 to 218 | Nc1ccccc1NC(=O)c1ccc(COc2ccc3ncnc(Nc4cccc(Br)c4)c3c2)cc1
75 to 77 | CC(=O)N(c1ncc(C(F)(F)F)cc1Cl)c1c([N+](=O)[O-])cc(C(F)(F)F)c(Cl)c1[N+](=O)[O-]
124 | CC1(C)CCC(C)(C)c2cc(C(O)COc3ccc(C(=O)NN4CCCCC4)c(O)c3)ccc21 (configuration not stated)
220 to 222 | O=C(Nc1cccc(-c2ccnc3c(C(=O)c4cccs4)cnn23)c1)c1ccncc1
73 to 75 | COc1cc(OC)cc(C2CC=CCC2[N+](=O)[O-])c1 (configuration not stated)
192 | N#Cc1cnn2c(C(F)(F)F)cc(-c3cccc(C(F)(F)F)c3)nc12
134 to 136 | O=S(=O)(c1ccc(Cl)cc1)N1c2ccccc2CCC1c1ccc(CN2CCSCC2)cc1 (configuration not stated)

melting point [°C] | SMILES
260 to 262 | CN1c2ccc([N+](=O)[O-])cc2C(C)(C)C12C=Nc1cc(-c3ccc(N4CCCC4)cc3)c3ccccc3c1O2 (configuration not stated)
158 to 159 | CCCc1ccc(S(=O)(=O)NCC2CCN(S(=O)(=O)c3ccc(CCC)cc3)CC2)cc1
251 to 253 | Fc1cnc(Nc2cccnc2)nc1Nc1ccc2c(c1)OCCO2
140 to 142 | CCOCc1nc2c(N)nc(C)c(C)c2n1CCCNC(=O)N1CCOCC1
87 to 88 | CCN(CC)C(=O)n1ccc(Sc2cccc(Cl)c2C)n1
128 to 130 | CCOc1nn(-c2ccc(C(F)(F)F)cn2)cc1CCCOc1ccc(CCC(=O)O)c(OCc2ccccc2)c1
112 | CC1(C)C=C(c2cccnc2)c2cc(Cl)c(Cl)cc2OC1
122 to 125 | CCCCCCCCCCCCNC(=O)COc1ccc(O)cc1NCC(=O)O
147 to 148 | c1ccc(-c2cccc(-n3cnc4cc(-n5cccc5)ccc43)c2)nc1
132 to 134 | COc1ccc(OC)c(C(O)c2cccc(N)c2)c1 (configuration not stated)
118 to 122 | COC(=O)C1=C(C)NC(c2ncsc2Cl)=NC1c1ccc(F)cc1 (configuration not stated)
110 | CC(=O)NC1(C)CC(C)(C)CC(C)(C)C1
136 to 138 | O=C(O)C(CC(=O)N1Cc2ccc(F)cc2C1)Cc1ccccc1 (configuration not stated)
> 250 | CC(C)(C)c1cc(-c2nnc(NC#N)s2)cc(C(C)(C)C)c1O
106 | CC(C)c1onc2c1c(=O)n(C)c(=O)n2C
100 | O=C1CCCCC(CO)N1 (configuration not stated)
127 to 132 | C=CCNC(=O)c1cc(CCc2cc3c(s2)-n2c(C)nnc2CN=C3c2ccccc2Cl)ccc1CC(=O)Nc1cccc(/C=C/c2nc(C3CCC3)cs2)c1
170 | O=C(O)Cc1ccc2nc(-c3ccccc3)oc2c1
167 to 168 | CCOC(=O)Cc1c(C)c2ccc(O)cc2oc1=O
